Assay [1] has as its system rat-tail artery smooth muscle. The arrangement: species or system rat (female Wistar). As for the experimental part:
Female Wistar rats (250–300 g) were applied in this study and sacrificed followed the principle of institutional animal experimentation ethics and UK animal research guidelines. All of the procedures involved in this study was approved by IACUC of Queen’s University Belfast. Rat-tail artery and bladder were isolated and located in pre-chilled Kreb’s solution equilibrated with 95% O2, 5% CO2[51]. Isolated muscle strips (2–10 mm) were vertically suspended in a 2 mL organ bath containing 37 °C Kreb’s solution. The Kreb’s solution was constant refreshing by constant flowing (2 mL/min) during the assay. Potassium chloride (KCL, 60 mM) was used to test for viability of muscle strips after 20 min equilibration. After the smooth muscle strip were prepared, the synthetic replicates of PE-BBI (10^−11 to 10^−5 M) was used to quantify the myogenic potency on rat-tail artery and bladder smooth muscle. Between each concentration, the smooth muscle strip was washed 5 mins and re-equilibration for another 5 min. Each data point was repeated on at least five independent muscle strips. The tension change was amplified and recorded by a PowerLab System (AD Instruments Pty Ltd.)[51].

Assay [2] has as its system Escherichia coli (NCTC 10418). As to the kind of experiment: Antimicrobial MIC assay, E. coli. The assay is classed as cell-based. The following applies: 1 to 512 μM, MHB, 18 h, 37 °C, 6 replicates, absorbance 550 nm; data not shown. As for the experimental part:
(§1) Gram-negative bacteria Escherichia coli (NCTC 10418); Gram-positive bacteria Staphylococcus aureus (NCTC 10788) and pathogenic yeast Candida albicans (NCYC 1467) were used in minimum inhibitory concentration (MIC) assays to investigate the board antimicrobial activity ability of synthetic PE-BBI. Microorganisms involved in MIC assays were cultured in MHB for 16–18 h. Then sub-cultured for 2~4 h to allow the microorganism to enter the logarithmic growth phase. Subsequently, proper density of bacterial (1 × 10^6 colony forming units (cfu)/mL) and fungi (1 × 10^5 cfu/mL) were seeded into 96 well plate. Different concentration ranged from 1 to 512 μM of PE-BBI were added into each well (6 replicates per concentration). The absorbance value at 550 nm was detected using a Synergy HT plate reader (Biotech, Minneapolis, MN, USA) after 18 h incubation in 37 °C incubator[50].

Assay [3] has as its system Staphylococcus aureus (NCTC 10788). As to the kind of experiment: Antimicrobial MIC assay, S. aureus. The assay is classed as cell-based. The settings on record: 1 to 512 μM, MHB, 18 h, 37 °C, 6 replicates, absorbance 550 nm; data not shown. As for the experimental part: as §1
Assay [4] addresses T1, trypsin from bovine pancreas (Bos taurus, UniProt P00760).
T1 construct: purchased Sigma/Aldrich, Poole, Dorset, UK; host or cells: bovine pancreas
T1 sequence (P00760 24-246): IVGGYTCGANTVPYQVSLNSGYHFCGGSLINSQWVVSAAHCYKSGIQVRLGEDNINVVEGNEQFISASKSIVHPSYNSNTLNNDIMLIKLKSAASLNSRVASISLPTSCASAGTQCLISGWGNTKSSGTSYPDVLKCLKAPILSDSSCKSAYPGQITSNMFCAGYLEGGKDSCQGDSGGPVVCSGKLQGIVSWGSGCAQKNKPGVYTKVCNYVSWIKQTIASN
As to the kind of experiment: Trypsin inhibitory assay. The assay is classed as biochemical.

Assay [5] deals with Candida albicans (NCYC 1467). As to the kind of experiment: Antimicrobial MIC assay, C. albicans. The assay is classed as cell-based. The settings on record: 1 to 512 μM, MHB, 18 h, 37 °C, 6 replicates, absorbance 550 nm; data not shown. Here is the method: as §1

This is an account of results in article PMC6162207, “Identification and pharmaceutical evaluation of novel frog skin-derived serine proteinase inhibitor peptide–PE-BBI (Pelophylax esculentus Bowman-Birk inhibitor) for the potential treatment of cancer” (Scientific Reports, 2018).

Positions of bridges follow the written chain, without caps; N, C: chain ends. Residues, ends and D or L forms follow the SMILES beside them.

`CC[C@H](C)[C@@H]1NC(=O)[C@H](CO)NC(=O)[C@H](CCCCN)NC(=O)[C@H]([C@@H](C)O)NC(=O)[C@H](Cc2c[nH]c3ccccc23)NC(=O)[C@@H](NC(=O)CNC(=O)[C@H](CCCCN)NC(=O)[C@H](CC(C)C)NC(=O)[C@H](C)NC(=O)CN)CSSC[C@@H](C(=O)N[C@@H](CCCCN)C(N)=O)NC(=O)[C@@H]2CCCN2C(=O)[C@H](CCCCN)NC(=O)[C@@H]2CCCN2C(=O)[C@@H]2CCCN2C1=O` [PE-BBI] (H-GALKGCWTKSIPPKPCK-NH2; disulfide 6-16; N-terminus assumed): in assay [1], the midpoint of the response, the EC50, lay at 0.00879 µM. In assay [2], the “antimicrobial activity (MIC), E. coli” value is recorded as “didn’t show any obviously antibacterial activity even in the highest concentration (512 μM)”. Further, the “antimicrobial activity (MIC), S. aureus” value in assay [3] was “didn’t show any obviously antibacterial activity even in the highest concentration (512 μM)”. Moreover, the Ki in assay [4] came out at 0.31 ± 0.072 µM. Also, in assay [4] (PE-BBI 0.1–100 µM), the “mode of trypsin inhibition” value was “competitive reversible trypsin inhibitory activity”. Besides, the “antimicrobial activity (MIC), C. albicans” value in assay [5] was “didn’t show any obviously antibacterial activity even in the highest concentration (512 μM)”.
